Data on five compounds can be found in publication PMC8861431, “Tissue Pharmacokinetic Properties and Bystander Potential of Hypoxia-Activated Prodrug CP-506 by Agent-Based Modelling” (Frontiers in Pharmacology, 2022).

Where two headings read alike, the source gives them in different places. A value given as a limit tells only on which side of the number the result lay.

One data set has as its system POR-R MCLs. The settings on record: established value for the internal standard; ref Wilson et al., 2004; cited from earlier work.
The conditions of data set [1]: ref Hicks et al., 2007; Foehrenbacher et al., 2013a, 2013b; cited from earlier work.
For data set [2] the following is noted: ref Guise et al., 2010; cited from earlier work.
Data set [3] has as its system HCT-116 cells (PORko-G, HCT-116 WT, POR-R). Kind of data set: Cellular metabolism assay (LC-MS/MS of reduced metabolites). The data set is classed as in vitro ADME, human. The note with it: anoxic cultures. The procedure: Aerobic and anoxic conditions were achieved as described above. Cells (5 x 10^5 per well) were seeded with 350 µl medium in duplicate into 24-well plates and left to attach for 2 h in a humidified 37°C incubator. A working solution of CP-506 was prepared in culture medium to achieve a 100 µM concentration in each well after the addition of a 500 µl volume. Plates were exposed to drug for 1 h in a humidified 37°C incubator. Metabolism was then halted by the addition of two-volumes of ice-cold acetonitrile containing 2 µM of internal standard for each analyte. Samples were stored at −80°C until LC-MS/MS analysis.
(§1) The LC system for tandem MS consisted of an Agilent 1200 autosampler (4°C) and binary pump, a 3.0 × 50 mm, 1.8-micron Zorbax SB-C18 column (Agilent; PN: 827975-302) and 2.1 × 7 mm guard column (Alltech, IL) maintained at 35°C, at a pressure of <400 bar and flow rate of 0.3 ml/min. The mobile phase comprised a gradient of 0.01% formic acid in 80% acetonitrile - 20% water, v/v (solvent A), and 0.01% formic acid in water (solvent B). Initial mobile phase composition was 20% solvent A and 80% solvent B, increasing to 60% A (0–3 min) then 80% A (3–5.45 min), returning to initial conditions (5.5–6 min). Post-run time was 1 min, and the total run time was […]. Mass spectrometric detection was carried out using an Agilent 6410 triple quadrupole mass spectrometer equipped with a multimode ionization (MMI) source. The mass spectrometer was operated in electrospray positive ionization mode using multiple reaction monitoring (MRM), with Q1 & Q3 set to unit resolution ([…]). The electrospray ionization parameters, optimized for the parent molecular ion ([M+H]+) abundance were: drying gas temperature 325°C, vaporiser temperature 150°C, drying gas flow 5 L/min, nebuliser pressure 50 psi, capillary voltage 1.8 kV, Delta EMV 300 V. Ultra-pure nitrogen was used as collision gas. The divert valve feature of the Agilent 6410 triple quadrupole mass spectrometer was utilised to prevent the eluate from entering the ionisation source chamber during the first 0.5 min of each run. For CP-506 samples, positively charged ions representing the [M+H]+ for CP-506 and CP-506-D8 were collisionally dissociated to form specific product ions which were monitored in MS2 (unit resolution). The MRM transition, ionization mode, collision energy, dwell time, fragmentor voltage and retention time for all compounds is provided in Supplementary Table S2. Agilent MassHunter software (v.4.04.00) was used for data acquisition and chromatographic peak integration.

A short description of data set [4]: Media stability studies (stirred medium without serum, 37°C). The class given is physicochemical. The note with it: for half-life at 100 µM: 37°C, aerobic, medium without serum/cells, read-out: Half-life (T1/2) in stirred medium. The procedure: The stability of each compound was determined in stirred medium (without serum) maintained under aerobic conditions by the constant supply of a humidified gas mixture comprised of 21% O2, 5% CO2 with balance N2. Vials were spiked with 100 µM of the relevant compound, and samples were collected using a positive displacement pipettor for up to 3 h thereafter. The collected samples were then treated with two-volumes of ice-cold acetonitrile containing 2 µM of the relevant deuterated (D8) internal standard and stored at −80°C until LC-MS/MS analysis.
as §1

The test system of another data set is HCT-116 cell line panel. Kind of data set: Anti-proliferative IC50 assay of authentic CP-506 metabolites. The class given is cell-based, human. The procedure:
Cells (700–1,000 per well) were seeded with 100 µl culture medium into 96-well plates and left to attach for 2 h in a humidified 37°C incubator. Compounds were prepared in culture medium and serially diluted (1:3) in the well volume. […] Aerobic experiments were performed under standard tissue culture conditions (21% O2), and the anoxic experiments were performed in parallel in a 5% H2/Pd catalyst anaerobic chamber (Shellab Bactron, Sheldon manufacturing Inc., Cornelius, OR) using pre-equilibrated media and plasticware. All anoxia experiments were conducted using a catalyst-scrubbed anaerobic chamber, unless otherwise specified, with gas oxygen measurements of <1 ppm O2. Cells were then washed three times and left to grow for 96 h before cell density determination using a sulforhodamine B (SRB) assay ([Vichai and Kirtikara, 2006]). To this end, the cells were fixed by layering 50 µl of trichloroacetic acid (40% w/v in MilliQ water) on top of the culture media (150 µl) in each well for 1 h at 4°C. Plates were rinsed under running tap water and stained with 50 µl of SRB (0.4% w/v in MilliQ water containing 1% v/v acetic acid) for 30 min at room temperature. Plates were rapidly destained by rinsing three times in tap water containing 1% (v/v) acetic acid. The stain was solubilized by adding 100 µl of 10 mM unbuffered Tris base to each well with gentle rocking for 1 h. Plates were read on a Biotek ELx808 Absorbance Microplate Reader at 490 nm using KC4 software. The IC50 value (concentration required to reduce staining to 50% of the untreated control on the same plate) for each compound was determined by interpolation using a 4-parameter logistic regression model.
FIGURE 3 Hypoxia-dependent metabolism of CP-506 leads to the formation of a multitude of short-lived species with variable cytotoxicity. (A) Bioreductive metabolism of CP-506 under normoxic (21% O2) and anoxic conditions (<1 ppm O2). Concentrations of CP-506 and its metabolites (CP-506H, CP-506M and CP-506M-Cl2) were quantified by mass spectrometry with reference to the appropriate deuterated (D8) internal standard. Values are the mean ± SEM for three independent experiments. (B) Stability of CP-506 metabolites in culture medium (without cells) at 37°C. Concentrations were determined by mass spectrometry using standard curves generated from authenticated stocks. […] IC50 values are the mean ± SEM of duplicate wells for three independent experiments. T-tests were performed using GraphPad Prism 8 (ns, p-value > 0.05; *, p-value ≤ 0.05; **, p-value ≤ 0.01; ***, p-value ≤ 0.001).

Where [5] appears, read: stirred medium without serum or cells.

In the case of `N[14C](N)=O` [[^14C]-urea], the “DMCL in HCT-116 MCLs” value with POR-R MCLs is given as 3.67 x 10^−7 cm^2 s^−1.

Take `CS(=O)(=O)OCCN(CCBr)c1c(C(=O)NCCO)cc([N+](=O)[O-])cc1[N+](=O)[O-]` [PR-104A, reference compound]: the “KO2 (O2 concentration of half-maximal activation)” value in data set [1] is reported as 0.126 µM O2. Besides, the “Safe human exposure levels as percent of those observed in mice” value in data set [2] is given as 10–29%.

In the case of `CCN1CCN(C(=O)c2cc(N(CCO)CCO)c(S(C)(=O)=O)cc2NO)CC1` [CP-506H-(OH)2, (5-(Bis(2-hydroxyethyl)amino)-2-(hydroxyamino)-4-(methylsulfonyl)phenyl)(4-ethylpiperazin-1-yl)methanone], the “Detection of metabolite in anoxic cultures” value in data set [3] is listed as “undetectable”. Moreover, the half-life at 100 µM in data set [4] (setting [5]) was found to be 0.0417 h.

For `CCN1CCN(C(=O)c2cc(N(CCO)CCO)c(S(C)(=O)=O)cc2N)CC1` [CP-506M-(OH)2, (2-Amino-5-(bis(2-hydroxyethyl)amino)-4-(methylsulfonyl)phenyl)(4-ethylpiperazin-1-yl)methanone], the “Concentration up to which the cell line panel was not sensitive” value in the data set with HCT-116 cell line panel (Figure 3C) is on record as over 100 µM. Also, the half-life at 100 µM in data set [4] (setting [5]) worked out at 6.56 h.

Consider `CCN1CCN(C(=O)c2cc(N(CCCl)CCCl)c(S(C)(=O)=O)cc2NO)CC1` [CP-506H-Cl2, (5-(Bis(2-chloroethyl)amino)-2-(hydroxyamino)-4-(methylsulfonyl)phenyl)(4-ethylpiperazin-1-yl)methanone], for which the “Anti-proliferative IC50 of metabolite” value in the data set with HCT-116 cell line panel (direct exposure of monolayers to authentic metabolite, Figure 3C: 5 days, normoxic 21% O2) was “limited potency”. Further, the half-life at 100 µM in data set [4] worked out at 2.35 h. Further, the “Fold longer half-life than CP-506H or CP-506M” value in data set [4] (stirred medium, Figure 3B) is at least 10 fold.
